Read-outs that look alike come from different tables or passages of the source. Where only a bound is given, the exact number is not on record here.

Holding throughout (assay type): cell-based
One assay concerns OCI-LY3 cells. As to the kind of experiment: Resazurin cell viability assay in DLBCL cells (OCI-LY3). The settings on record: Homo sapiens, OCI-Ly3, 72 h, OCI-LY3 cells (BTK independent), 50% growth inhibition, read-out: OCI-LY3 Prol GI50. The method, then:
(§1) Compounds of the invention were tested in the following cellular assays. The terms in Table 1 are defined as follows: DC50 refers to the concentration at which 50% maximal degradation was observed; deg Amax is the extent of degradation and the value refers to the % protein remaining at the concentration at which maximum degradation is seen; Prol GI50 refers to the proliferation data and defines the concentration at which 50% growth inhibition was observed compared to the vehicle treated control at the end of the incubation time. TMD8 cells are BTK dependent and OCI-LY3 cells are BTK independent.
(§2) Cell Viability Assay in DLBCL (Diffuse Large B-Cell Lymphoma) Cells:
(§3) The effect of the BTK compounds on cell proliferation was measured by a Resazurin (Sigma, #R7017) based cell viability assay. TMD8 (BTK compound sensitive) and OCI-LY3 (BTK compound insensitive) cells were incubated for 72 h at 37° C. and 5% CO2 with the corresponding compound. Resazurin is a non-toxic, cell-permeable substrate that is virtually non-fluorescent. Upon entering living cells, Resazurin (Sigma, #R7017) is reduced to highly fluorescent Resorufin. The metabolic activity was assessed by measuring the fluorescence signal (ex. 530 nm; em. 600 nm).
(§4) TMD8 and OCI-Ly3 cells were seeded at day 0 in triplicates at a cell density of 1×10^4 cells per 150 μl/well in a 96-well plate (Costar #3904). Additional plates were prepared, in order to assess the basal metabolic activity of both cell lines at the beginning of the experiment. For these reference plates, Resazurin (Sigma, #R7017) was added to a final concentration of 13 μg/ml 3 h post seeding and was incubated for 2 h at 37° C. and 5% CO2. Following incubation, the fluorescent signal intensity of the 96-well plates was measured on a Mithras LB940 multimode plate reader at 530/600 nm (Berthold Technologies, Germany).
(§5) In parallel, 3 h post-seeding, test-plates were treated with compound at various concentrations, or with vehicle (DMSO) alone for 3 days. The compound addition to the plates was performed by using a HP D300 digital dispenser (TECAN, Switzerland). The compounds were tested in triplicate, 8-point serial dilution (1:4), with a start concentration of 10 μM for OCI-LY3 and 1 μM for the TMD8 cells, respectively. To assess the relative proliferation of the cells, Resazurin was added to each well directly to the medium to a final concentration of 13 μg/ml. The plates were incubated for 2 h at 37° C. and 5% CO2 to result in a 72 h endpoint. Following incubation, the fluorescent signal intensity of the 96-well plates were measured on a Mithras LB940 multimode plate reader at 530/600 nm (Berthold Technologies, Germany). The formation of Resorufin dye directly correlates with the number of metabolically active cells. For each triplicate treatment the mean and standard deviation were calculated and analyzed via curve fitting software to determine the respective compound concentration resulting in 50% growth inhibition (GI50) values. For each compound GI50 values were typically determined from at least 2 entirely independent experiments.
OCI-LY3 cells were acquired through a license agreement with University Health Network, Toronto, Canada. Cells are cultivated in RPMI1640 media (Gibco, #61870-010, lot. 1894759), supplemented with 10% FCS (HyClone, GE #SH30066.03, lot AB217603), 2 mM L-Glutamine (BioConcept, #5-10K50-H, lot. LA03467P), 1 mM Sodium Pyruvate (BioConcept, #5-60F00-H, lot. LB10510P), 10 mM HEPES (Gibco, #15630-056, lot. 1854074), 1% Pen/Strep (BioConcept, #4-01F00-H, lot. LB04235P).

In another assay the target is T1, BTK(C481S)-GFP (Homo sapiens, UniProt Q06187+Q96SW2, C481S).
T1 construct: with a mutagenesis reaction on pENTR221-BTK (STOP-Leu); CHYSEL (cis-acting hydrolase element, 2A) remnant after GFP; mCherry is split off as a separate protein (C); expressed in transfected cells; host or cells: TMD8 cells, lentiviral transduction with pLenti6-BTK(C481S)-GFP-CHYSEL-mCherry
T1 sequence (Q06187 whole entry C481S): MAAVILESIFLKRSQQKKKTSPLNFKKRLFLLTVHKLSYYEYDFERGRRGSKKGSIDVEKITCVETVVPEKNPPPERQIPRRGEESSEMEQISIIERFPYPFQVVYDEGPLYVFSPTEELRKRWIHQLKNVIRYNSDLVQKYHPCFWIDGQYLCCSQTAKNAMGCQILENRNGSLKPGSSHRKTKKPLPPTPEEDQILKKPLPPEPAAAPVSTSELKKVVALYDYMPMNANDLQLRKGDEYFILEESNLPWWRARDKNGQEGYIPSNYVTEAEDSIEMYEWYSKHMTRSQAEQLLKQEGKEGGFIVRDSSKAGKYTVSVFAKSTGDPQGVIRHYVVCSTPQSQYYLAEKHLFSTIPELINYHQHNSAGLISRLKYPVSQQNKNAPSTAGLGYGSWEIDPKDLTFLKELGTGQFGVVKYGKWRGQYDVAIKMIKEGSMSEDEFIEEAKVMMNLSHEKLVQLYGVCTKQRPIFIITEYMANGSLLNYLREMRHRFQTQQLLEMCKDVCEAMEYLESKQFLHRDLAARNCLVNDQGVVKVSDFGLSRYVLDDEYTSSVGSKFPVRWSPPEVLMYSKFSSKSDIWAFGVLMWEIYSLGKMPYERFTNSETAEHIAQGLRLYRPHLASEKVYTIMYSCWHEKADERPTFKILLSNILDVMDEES
T1 sequence (Q96SW2 whole entry): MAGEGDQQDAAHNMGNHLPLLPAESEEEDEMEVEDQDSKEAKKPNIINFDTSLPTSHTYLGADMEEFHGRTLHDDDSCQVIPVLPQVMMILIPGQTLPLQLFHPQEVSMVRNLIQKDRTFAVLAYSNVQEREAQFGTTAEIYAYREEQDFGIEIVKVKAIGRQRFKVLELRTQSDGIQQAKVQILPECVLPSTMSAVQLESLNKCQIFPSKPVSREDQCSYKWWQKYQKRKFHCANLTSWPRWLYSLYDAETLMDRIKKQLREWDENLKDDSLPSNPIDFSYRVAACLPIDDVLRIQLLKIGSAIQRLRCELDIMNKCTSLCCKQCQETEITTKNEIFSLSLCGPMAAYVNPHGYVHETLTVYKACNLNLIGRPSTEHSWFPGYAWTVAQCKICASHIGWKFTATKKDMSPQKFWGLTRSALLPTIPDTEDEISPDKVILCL
T1 sequence (Q16531 whole entry partner): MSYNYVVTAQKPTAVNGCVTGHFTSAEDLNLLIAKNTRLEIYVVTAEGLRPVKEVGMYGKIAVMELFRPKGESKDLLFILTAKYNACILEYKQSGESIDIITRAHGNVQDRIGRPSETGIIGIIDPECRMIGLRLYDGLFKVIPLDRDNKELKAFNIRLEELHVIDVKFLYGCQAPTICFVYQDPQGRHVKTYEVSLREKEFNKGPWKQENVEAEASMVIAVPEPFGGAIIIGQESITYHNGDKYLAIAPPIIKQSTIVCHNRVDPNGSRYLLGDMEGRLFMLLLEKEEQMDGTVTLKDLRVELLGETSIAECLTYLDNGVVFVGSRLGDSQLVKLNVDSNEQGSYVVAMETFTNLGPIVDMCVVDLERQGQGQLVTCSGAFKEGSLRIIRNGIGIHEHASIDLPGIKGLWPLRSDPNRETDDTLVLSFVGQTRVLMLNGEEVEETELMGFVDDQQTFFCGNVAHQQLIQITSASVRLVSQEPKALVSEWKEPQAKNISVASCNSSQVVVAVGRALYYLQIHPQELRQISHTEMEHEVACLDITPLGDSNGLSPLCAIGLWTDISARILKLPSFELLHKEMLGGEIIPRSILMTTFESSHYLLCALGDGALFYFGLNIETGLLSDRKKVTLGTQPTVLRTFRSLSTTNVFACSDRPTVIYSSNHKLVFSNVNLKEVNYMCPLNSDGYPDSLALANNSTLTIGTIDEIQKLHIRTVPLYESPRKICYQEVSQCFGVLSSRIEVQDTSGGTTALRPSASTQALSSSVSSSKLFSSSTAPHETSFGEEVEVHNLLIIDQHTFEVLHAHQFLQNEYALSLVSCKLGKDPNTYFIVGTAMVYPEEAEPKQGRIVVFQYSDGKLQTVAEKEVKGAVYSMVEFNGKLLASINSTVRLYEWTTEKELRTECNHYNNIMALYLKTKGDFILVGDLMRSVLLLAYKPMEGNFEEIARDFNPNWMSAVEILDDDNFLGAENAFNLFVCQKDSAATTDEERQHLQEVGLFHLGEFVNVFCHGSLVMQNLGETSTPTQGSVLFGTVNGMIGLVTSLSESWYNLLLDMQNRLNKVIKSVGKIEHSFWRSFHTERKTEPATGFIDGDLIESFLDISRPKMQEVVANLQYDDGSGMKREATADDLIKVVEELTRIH
As to the kind of experiment: BTK(C481S)-GFP protein abundance flow cytometry assay in TMD8 cells. The settings on record: for BTK (C481S) Amax %: % protein remaining at concentration of maximum degradation; for DC50: concentration at which 50% maximal degradation was observed. On the procedure: as §1
BTK(C481S)-GFP Protein Abundance Flow Cytometry Assay in TMD8 Cells:
Degradation of BTK(C481S) was measured in TMD8 cells expressing BTK(C481S)-GFP and mCherry from a stably integrated second generation bicistronic BTK(C481S)-GFP-CHYSEL-mCherry construct. Reduction of the GFP signal measured by flow cytometry served as readout for BTK(C481S) degradation after degrader treatment.

Another assay deals with TMD8 cells. As to the kind of experiment: Resazurin cell viability assay in DLBCL cells (TMD8). As to conditions: TMD8 cells (BTK dependent), 50% growth inhibition, read-out: TMD8 Prol GI50. On the procedure: as §1, §2, §3, §4, §5
TMD8 cells were acquired through a license agreement with Tokyo Medical and Dental University, Japan. Cells are cultivated in MEM Alpha (BioConcept, #1-23F01-I, lot. LB04262P) supplemented with 10% FCS (HyClone, GE #SH30066.03, lot AB217603), 2 mM L-Glutamine (BioConcept, #5-10K50-H, lot. LA03467P), 1% Pen/Strep (BioConcept, #4-01F00-H, lot. LB04235P).

Turning to `COc1ccc(C(=O)N2CCC3(CCN(Cc4ccc(-c5cc6c(-c7cc(F)cc(NC(=O)N8C[C@@H](CC(C)C)[C@H](O)C8)c7C)ncnc6[nH]5)cc4)CC3)CC2)cc1N1CCC(=O)NC1=O` (racemic) [Compound 5, trans-rac-N-(3-(6-(4-((9-(3-(2,4-Dioxotetrahydropyrimidin-1(2H)-yl)-4-methoxybenzoyl)-3,9-diazaspiro[5.5]undecan-3-yl)methyl)phenyl)-7H-pyrrolo[2,3-d]pyrimidin-4-yl)-5-fluoro-2-methylphenyl)-3-hydroxy-4-isobutylpyrrolidine-1-carboxamide], the GI50 in the assay on OCI-LY3 cells amounted to 7460 nM. Moreover, on BTK(C481S)-GFP, the “BTK (C481S) Amax %” value was determined as 2.0% and half-maximal degradation (DC50) was put at 1.3 nM. The GI50 with TMD8 cells (72 h) stood at 0.73 nM.
As for `COc1ccc(C(=O)N2CCC3(CCN(Cc4ccc(-c5cc6c(-c7cc(F)cc(NC(=O)N8C[C@@H](CC(C)C)[C@H](O)C8)c7C)ncnc6[nH]5)cc4)CC3)CC2)cc1N1CCC(=O)NC1=O` [Compound 1, (3S,4R)—N-(3-(6-(4-((9-(3-(2,4-Dioxotetrahydropyrimidin-1(2H)-yl)-4-methoxybenzoyl)-3,9-diazaspiro[5.5]undecan-3-yl)methyl)phenyl)-7H-pyrrolo[2,3-d]pyrimidin-4-yl)-5-fluoro-2-methylphenyl)-3-hydroxy-4-isobutylpyrrolidine-1-carboxamide], the GI50 with OCI-LY3 cells was 7120 nM. Also, at BTK(C481S)-GFP, the “BTK (C481S) Amax %” value is given as 3.6% and the DC50 amounted to 41 nM. The GI50 in the assay with TMD8 cells (Homo sapiens, TMD8, 72 h) was 14 nM.
For `COc1ccc(C(=O)N2CCC(OCCN3CCN(Cc4ccc(-c5cc6c(-c7cc(F)cc(NC(=O)N8C[C@H](CC(C)C)[C@@H](O)C8)c7C)ncnc6[nH]5)cc4)CC3)CC2)cc1N1CCC(=O)NC1=O` [Compound 2, (3R,4S)—N-(3-(6-(4-((4-(2-((1-(3-(2,4-Dioxotetrahydropyrimidin-1 (2H)-yl)-4-methoxybenzoyl)piperidin-4-yl)oxy)ethyl)piperazin-1-yl)methyl)phenyl)-7H-pyrrolo[2,3-d]pyrimidin-4-yl)-5-fluoro-2-methylphenyl)-3-hydroxy-4-isobutylpyrrolidine-1-carboxamide], in that order: 7730 nM, 2.0%, 0.4 nM and 0.31 nM.
Consider `COc1ccc(C(=O)N2CCC3(CCN(Cc4ccc(-c5cc6c(-c7cc(F)cc(NC(=O)N8C[C@H](CC(C)C)[C@@H](O)C8)c7C)ncnc6[nH]5)cc4)CC3)CC2)cc1N1CCC(=O)NC1=O` [Compound 6, (3R,4S)—N-(3-(6-(4-((9-(3-(2,4-Dioxotetrahydropyrimidin-1(2H)-yl)-4-methoxybenzoyl)-3,9-diazaspiro[5.5]undecan-3-yl)methyl)phenyl)-7H-pyrrolo[2,3-d]pyrimidin-4-yl)-5-fluoro-2-methylphenyl)-3-hydroxy-4-isobutylpyrrolidine-1-carboxamide], for which the concentration for 50% growth inhibition (GI50) in the assay on OCI-LY3 cells stood at 9920 nM. Besides, at BTK(C481S)-GFP, the “BTK (C481S) Amax %” value amounted to 2.1% and the DC50 stood at 0.7 nM. Moreover, in the assay on TMD8 cells (Homo sapiens, TMD8, 72 h), the GI50 is 0.45 nM.
Consider `COc1ccc(C(=O)N2CCC(OC3CCN(Cc4ccc(-c5cc6c(-c7cc(F)cc(NC(=O)N8C[C@H](CC(C)C)[C@@H](O)C8)c7C)ncnc6[nH]5)cc4)CC3)CC2)cc1N1CCC(=O)NC1=O` [Compound 8, (3R,4S)—N-(3-(6-(4-((4-((1-(3-(2,4-Dioxotetrahydropyrimidin-1(2H)-yl)-4-methoxybenzoyl)piperidin-4-yl)oxy)piperidin-1-yl)methyl)phenyl)-7H-pyrrolo[2,3-d]pyrimidin-4-yl)-5-fluoro-2-methylphenyl)-3-hydroxy-4-isobutylpyrrolidine-1-carboxamide], for which the GI50 in the assay with OCI-LY3 cells was over 10000 nM. Further, on BTK(C481S)-GFP, the “BTK (C481S) Amax %” value is given as 2.7% and it took 0.4 nM to reach half-maximal degradation (DC50). Moreover, the 50% growth inhibitory concentration (GI50) in the assay with TMD8 cells (Homo sapiens, TMD8, 72 h) was 0.4 nM.
Turning to `COc1ccc(C(=O)N2CCC(CN3CCC(Oc4ccc(-c5cc6c(-c7cc(F)cc(NC(=O)N8C[C@H](CC(C)C)[C@@H](O)C8)c7C)ncnc6[nH]5)cc4)CC3)CC2)cc1N1CCC(=O)NC1=O` [Compound 11, (3R,4S)—N-(3-(6-(4-((1-((1-(3-(2,4-Dioxotetrahydropyrimidin-1 (2H)-yl)-4-methoxybenzoyl)piperidin-4-yl)methyl)piperidin-4-yl)oxy)phenyl)-7H-pyrrolo[2,3-d]pyrimidin-4-yl)-5-fluoro-2-methylphenyl)-3-hydroxy-4-isobutylpyrrolidine-1-carboxamide], the GI50 with OCI-LY3 cells worked out at 3510 nM; in the assay on TMD8 cells (Homo sapiens, TMD8, 72 h) it was 0.18 nM. In addition, the “BTK (C481S) Amax %” value on BTK(C481S)-GFP was found to be 2.2%. The compound also returned a DC50 on BTK(C481S)-GFP of 0.2 nM.
For `COc1ccc(C(=O)N2CCC(CN3CCN(Cc4ccc(-c5cc6c(-c7cc(F)cc(NC(=O)N8C[C@H](CC(C)C)[C@@H](O)C8)c7C)ncnc6[nH]5)cc4)CC3)CC2)cc1N1CCC(=O)NC1=O` [Compound 12, (3R,4S)—N-(3-(6-(4-((4-((1-(3-(2,4-Dioxotetrahydropyrimidin-1(2H)-yl)-4-methoxybenzoyl)piperidin-4-yl)methyl)piperazin-1-yl)methyl)phenyl)-7H-pyrrolo[2,3-d]pyrimidin-4-yl)-5-fluoro-2-methylphenyl)-3-hydroxy-4-isobutylpyrrolidine-1-carboxamide], in that order: over 10000 nM, 0.3 nM, 3.0% and 0.3 nM.
The corresponding values for `COc1ccc(C(=O)N2CCC(OC3CCN(CCc4ccc(-c5cc6c(-c7cc(F)cc(NC(=O)N8C[C@H](CC(C)C)[C@@H](O)C8)c7C)ncnc6[nH]5)cc4)CC3)CC2)cc1N1CCC(=O)NC1=O` [Compound 13, (3R,4S)—N-(3-(6-(4-(2-(4-((1-(3-(2,4-Dioxotetrahydropyrimidin-1(2H)-yl)-4-methoxybenzoyl)piperidin-4-yl)oxy)piperidin-1-yl)ethyl)phenyl)-7H-pyrrolo[2,3-d]pyrimidin-4-yl)-5-fluoro-2-methylphenyl)-3-hydroxy-4-isobutylpyrrolidine-1-carboxamide] are 9220 nM, 0.24 nM, 1.1% and 0.2 nM.

Values taken from US11541056B2, “3-hydroxy-N-(3-(7H-pyrrolo[2,3-d]pyrimidin-4-yl)phenyl)pyrrolidine-1-carboxamide derivatives” (NOVARTIS AG, priority 2018, dated 2023).
